The source of these data is patent US20260242392A1, “ARYL TRICYCLIC STING AGONISTS AND USE THEREOF” (SHENZHEN GENUINE BIOTECHNOLOGY CO., LTD., priority 2023, published 2026).

Where two headings read alike, the source gives them in different places.

A short description of data set [1]: Pharmacokinetic (PK) study in ICR mice, IV and PO. To be noted: for AUC(0-t) / Vd / clearance / half-life / Cmax / bioavailability: ICR, mouse, plasma; for oral availability: oral administration at 5 mg/kg.
Description: (§1) The doses for IV and PO were 2 mg/kg and 5 mg/kg, respectively. Blood was collected at different time points after IV and PO administration and placed in heparinized tubes. Plasma was separated and frozen in a −20° C. refrigerator. Plasma was processed and then analyzed by LCMS/MS. Pharmacokinetic parameters of drug administration were calculated using a non-compartmental model in WinNonlin 8.2 software.
In data set [2] the test system is mouse colorectal cancer CT26 cell line. Description: Subcutaneous tumor model of female Balb/c mice transplanted with mouse colorectal cancer CT26 cell line. To be noted: separate CT26 model cohort, 20 mg/kg. Format: in vivo. How it is done: Pharmacodynamic Evaluation of Test Compounds in a Subcutaneous Tumor Model of Female Balb/c Mice Transplanted with Mouse Colorectal Cancer CT26 Cell Line
CT-26 tumor cells were cultured in a suitable culture medium. Cells in the exponential growth phase were collected and subcutaneously inoculated into the right back of experimental mice. Tumor growth was observed regularly after inoculation. When the tumor reached an average volume of approximately 100 mm^3, mice were randomly grouped based on tumor size and body weight for administration. The day of grouping was defined as Day 0. Test compounds were administered orally once weekly for 4 times. The efficacy was evaluated by calculating the tumor growth inhibition (TGI) based on the tumor volume, and the safety was evaluated based on the changes in animal body weight and death. […] All test compounds were well-tolerated.

Data set [3] has as its system human non-small cell lung cancer. To be noted: in combination with standard chemotherapy; cited from earlier work.
The next data set deals with human STING protein (Homo sapiens, UniProt Q86WV6). To be noted: cited from earlier work.
human STING protein, sequence (Q86WV6 whole entry): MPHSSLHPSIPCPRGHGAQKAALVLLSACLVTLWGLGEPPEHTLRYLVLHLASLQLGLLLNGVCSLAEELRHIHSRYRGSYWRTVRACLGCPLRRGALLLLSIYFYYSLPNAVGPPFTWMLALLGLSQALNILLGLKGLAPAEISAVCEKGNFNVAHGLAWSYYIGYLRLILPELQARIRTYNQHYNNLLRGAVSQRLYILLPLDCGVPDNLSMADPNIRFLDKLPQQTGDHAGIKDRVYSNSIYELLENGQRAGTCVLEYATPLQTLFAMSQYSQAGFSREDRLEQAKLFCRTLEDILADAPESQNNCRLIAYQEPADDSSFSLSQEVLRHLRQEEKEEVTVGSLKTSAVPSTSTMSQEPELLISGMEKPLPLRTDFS
The conditions of data set [4]: mouse; for oral availability: ICR, in vivo, 5 mg/kg; for clearance in vivo compared to MAS-2: po.
Description: as §1
Another data set can be described thus: in vivo. To be noted: ICR, mouse.
The target in the next data set is T1, Sting-HAQ (Homo sapiens, UniProt Q86WV6, G230A/H232R/R293Q/R71H).
T1 construct: host or cells: HEK293-HAQ Luc reporter cell line
T1 sequence (Q86WV6 whole entry R71H/G230A/H232R/R293Q): as the sequence (Q86WV6 whole entry) above, with R71H, G230A, H232R, R293Q counted along it
Description: HEK293-HAQ Luc reporter gene assay (Steady-Glo luciferase). Type of data set: cell-based. To be noted: 24 h incubation; read-out: HEK293-HAQ Luc Report Assay (24 h) EC50. The procedure: Test Principle: The HEK293-HAQ Luc reporter cell line utilizes the chemiluminescent reaction property of luciferase binding to its substrate beetle luciferin. The regulatory elements of the Sting-HAQ gene transcription are cloned upstream/downstream of the firefly luciferase gene to construct a luciferase recombinant plasmid. The recombinant plasmid is then transfected into HEK293 cells. After treatment with compounds, the cells are lysed, and the luciferase activity is measured using the Steady-Glo® detection system (Cat #E2550) manufactured by Promega Corporation. The effect of compounds on the Sting-HAQ regulatory elements is determined based on the level of luciferase activity. The Steady Glo® Luciferase Assay System enables high-throughput evaluation of the degree of activation of reporter cell lines by compounds through the activity of luciferase in mammalian cells, and provides long-term stable luminescence when used with reporter cell lines. The detection system can sustain a signal half-life of more than 5 hours in the test cell culture medium, enabling uniform measurement without sample pretreatment.
Test Method: Complete medium (DMEM+10% FBS+1% P/S) was prepared. The Hek293-HAQ Luc reporter cell line was resuscitated and passaged twice. Cells in logarithmic growth phase were collected by centrifugation, counted, and resuspended to an appropriate concentration. The cell suspension was seeded into a 96-well plate at a density of 20000 cells/well, with 100 µL of the cell suspension added per well. Test compounds were prepared into stock solutions with DMSO, and serially diluted 3-fold with DMSO starting from the highest concentration of 100 mM to obtain 9 concentration gradients. The test compounds were diluted 47.62-fold with culture medium, and 5 μL of each dilution was added to the 96-well plate containing 100 μL of cells. To Min control wells were added 5 μL of DMSO-cell culture medium mixture (with a final DMSO concentration of 0.1%), while Max control wells received 5 μL of a positive reference compound. The plate was incubated at 37° C. in an incubator with 5% carbon dioxide and relative humidity above 90% for 24 h. Subsequently, 75 μL/well of […] was added to terminate the reaction. After shaking at 305 rpm for 10 min, the plates were detected on Envision. The […] value RLU of each well was read, and the activation rate was calculated according to the formula: Activation %=(Sample−Ave_L)/(Ave_H−Ave_L)×100, where Ave_L: RLU Min (0.1% DMSO), Ave_H: RLU Max (positive reference compound). The activation rate, Activation % (Y), corresponding to each concentration (X), was entered in EXCEL. The half-maximal effective concentration EC50 value of each compound was calculated according to the built-in four-parameter fitting formula Y=Bottom+(Top−Bottom)/(1+10^((LogEC50−X)*HillSlope)) using the XLfit plug-in.
A general note: A reporter such as luciferase makes a cellular process visible.

Setting [5] is: mouse PK, injection 2 mg/kg and oral 5 mg/kg.

Description for in vivo: as §1

In the case of `CC[C@@H](CC(=O)c1cc2c(cc(OC)c3ocnc32)s1)C(=O)O` [Compound 51], in data set [1] (iv, 2 mg/kg), the AUC(0-t) (as a rule, exposure summed from dosing to a finite time, without extrapolation to infinity) was found to be 3240 ng·h/mL; the Vd came to 1.28 L/kg; the clearance was determined as 10.2 mL/min/kg; the half-life (as a rule, the time needed for the level to fall by half in the phase considered) is 4.36 h. Further, in data set [1] (po, 5 mg/kg), the AUC(0-t) was 8550 ng·h/mL, the highest level (Cmax) was 4550 ng/mL, the bioavailability was determined as 105% and the half-life is 3.1 h. Also, in data set [1] (setting [5]), the “clearance in vivo compared to MAS-2” value was “lower clearance” and the “exposure in vivo compared to MAS-2” value is listed as “higher exposure”. In addition, the oral availability in data set [1] (mouse PK) is listed as 100%. Besides, the “tumor growth inhibition (TGI)” value in data set [2] was 99%.
With `CC[C@@H](CC(=O)c1cc2c(cc(OC)c3oc(C)nc32)s1)C(=O)O` [Compound 53], the “tumor growth inhibition (TGI)” value in data set [2] turned out to be 101%.
Turning to `Cc1ccc2c(=O)c3cccc(CC(=O)O)c3oc2c1C` [DMXAA], the clinical efficacy entry in data set [3] is “failed to show significant efficacy”. Further, on human STING protein, the “activation of human STING protein” value is “fails to activate”.
Turning to `COc1cc2sc(C(=O)CC(C)C(=O)O)cc2c2ncoc12` (stereo not shown) [Example 12], in data set [4], the oral availability was determined as 100% and the “clearance in vivo compared to MAS-2” value is given as “lower clearance”. In “in vivo” (iv, 2 mg/kg), this compound had an exposure AUC(0-t) of 1570 ng·h/mL, a Vd of 0.49 L/kg, a clearance of 21.2 mL/min/kg and a half-life of 1.5 h. Besides, in “in vivo” (po, 5 mg/kg), the AUC(0-t) came to 4060 ng·h/mL, the concentration peaked (Cmax) at 6020 ng/mL, the bioavailability turned out to be 104% and the half-life is 2 h.
As for `COc1cc2sc(C(=O)C[C@H](C)C(=O)O)cc2c2cc(C)oc12` [Example 32], in data set [1] (iv, 2 mg/kg), the AUC(0-t) came to 3700 ng·h/mL, the Vd came to 0.252 L/kg, the clearance was determined as 8.98 mL/min/kg and the half-life is 0.821 h. In data set [1] (po, 5 mg/kg), the exposure AUC(0-t) amounted to 3450 ng·h/mL; the Cmax (in general, the highest concentration seen after dosing) worked out at 5360 ng/mL; the bioavailability was 37.4%; the half-life is 0.925 h.
In the case of `COc1cc2sc(C(=O)C[C@H](C)C(=O)O)cc2c2ncoc12` [Example 46, (S)-4-(4-methoxythieno[2′,3′:5,6]benzo[1,2-d]oxazol-7-yl)-2-methyl-4-oxobutanoic acid], in data set [4], the oral availability turned out to be 64.6% and the “clearance in vivo compared to MAS-2” value is “lower clearance”. Besides, in “in vivo” (iv, 2 mg/kg), the AUC(0-t) turned out to be 3540 ng·h/mL, the Vd was determined as 0.32 L/kg, the clearance worked out at 9.38 mL/min/kg and the half-life is 1.72 h. Moreover, in the data set “in vivo” (po, 5 mg/kg), the exposure AUC(0-t) came to 5710 ng·h/mL, the Cmax was 6480 ng/mL, the bioavailability came to 64.6% and the half-life is 1.61 h.
For `COc1cc2sc(C(=O)C[C@H](C)C(=O)O)cc2c2cc(F)oc12` [Example 62, (S)-4-(2-fluoro-4-methoxythieno[3,2-e]benzofuran-7-yl)-2-methyl-4-oxobutanoic acid], in data set [1] (iv, 2 mg/kg), the AUC(0-t) was found to be 4300 ng·h/mL, the Vd came out at 0.49 L/kg, the clearance came to 7.56 mL/min/kg and the half-life was 2.68 h. Besides, in data set [1] (po, 5 mg/kg), the AUC(0-t) stood at 10200 ng·h/mL, the maximum concentration (Cmax) was found to be 10100 ng/mL, the bioavailability is 92.9% and the half-life is 3.05 h.
Take `COc1cc2cc(C(=O)CCC(=O)O)sc2cc1OC` [MAS-2, reference compound]: at Sting-HAQ, the EC50 – broadly, the concentration that produces a half-maximal response – stood at 2590 nM. In data set [1] (iv, 2 mg/kg), this compound showed an exposure AUC(0-t) of 1010 ng·h/mL, a Vd of 0.343 L/kg, a clearance of 33 mL/min/kg and a half-life of 0.431 h. Also, in data set [1] (po, 5 mg/kg), the AUC(0-t) was found to be 1530 ng·h/mL, the Cmax came out at 2810 ng/mL, the bioavailability came out at 61.2% and the half-life is 1.63 h. In addition, the oral availability in data set [1] (mouse PK) was 61.23%.
